The conditions of data set [1]: 18-membered ring, DCM.
In the next data set the test system is NCI-H358 (K-Ras G12C). Put plainly: pERK potency assay, NCI-H358. It counts as cell-based. To be noted: Homo sapiens; NCI-H358 cells, 4 hours incubation with compound. As for the experimental part: The purpose of this assay was to measure the ability of test compounds to inhibit K-Ras in cells. Activated K-Ras induces increased phosphorylation of ERK at Threonine 202 and Tyrosine 204 (pERK). This procedure measures a decrease in cellular pERK in response to test compounds. The procedure described below in NCI-H358 cells is applicable to K-Ras G12C. […]
NCI-H358 cells were grown and maintained using media and procedures recommended by the ATCC. On the day prior to compound addition, cells were plated in 384-well cell culture plates (40 μl/well) and grown overnight in a 37° C., 5% CO2 incubator. Test compounds were prepared in 10, 3-fold dilutions in DMSO, with a high concentration of 10 mM. On the day of assay, 40 nL of test compound was added to each well of cell culture plate using an Echo550 liquid handler (LabCyte®). Concentrations of test compound were tested in duplicate. After compound addition, cells were incubated 4 hours at 37° C., 5% CO2. Following incubation, culture medium was removed and cells were washed once with phosphate buffered saline.
In some experiments, cellular pERK level was determined using the AlphaLISA SureFire Ultra p-ERK1/2 Assay Kit (PerkinElmer). Cells were lysed in 25 μL lysis buffer, with shaking at 600 RPM at room temperature. Lysate (10 μL) was transferred to a 384-well Opti-plate (PerkinElmer) and 5 μL acceptor mix was added. After a 2-hour incubation in the dark, 5 μL donor mix was added, the plate was sealed, and incubated 2 hours at room temperature. Signal was read on an Envision plate reader (PerkinElmer) using standard AlphaLISA settings. Analysis of raw data was carried out in Excel (Microsoft) and Prism (GraphPad). Signal was plotted vs. the decadal logarithm of compound concentration, and IC50 was determined by fitting a 4-parameter sigmoidal concentration response model.
In other experiments, cellular pERK was determined by In-Cell Western. Following compound treatment, cells were washed twice with 200 μL tris buffered saline (TBS) and fixed for 15 minutes with 150 μL 4% formaldehyde in TBS. Fixed cells were washed 4 times for 5 minutes with TBS containing 0.1% Triton X-100 (TBST) and then blocked with 100 μL Odyssey blocking buffer (LI-COR) for 60 minutes at room temperature. Primary antibody (pERK, CST-4370, Cell Signaling Technology) was diluted 1:200 in blocking buffer, and 50 μL were added to each well and incubated overnight at 4° C. Cells were washed 4 times for 5 minutes with TBST. Secondary antibody (IR-800CW rabbit, LI-COR, diluted 1:800) and DNA stain DRAQ5 (LI-COR, diluted 1:2000) were added and incubated 1-2 hours at room temperature. Cells were washed 4 times for 5 minutes with TBST. Plates were scanned on a Li-COR Odyssey CLx Imager. Analysis of raw data was carried out in Excel (Microsoft) and Prism (GraphPad). Signal was plotted vs. the decadal logarithm of compound concentration, and IC50 was determined by fitting a 4-parameter sigmoidal concentration response model.

Where “and” joins values, the source holds several entries; their conditions need not be identical. Equal values may be shown once. Read-outs that look alike come from different tables or passages of the source.

We go through 20 molecules from US20240277796A1, “METHODS FOR INHIBITING RAS” (Revolution Medicines, Inc., priority 2021, published 2024).

`CCn1c(-c2cc(N3CCN4CCCC[C@@H]4C3)cnc2[C@H](C)OC)c2c3cc(ccc31)-c1cccc(c1)C[C@H](NC(=O)OC(C)(C)C)C(=O)N1CCC[C@H](N1)C(=O)OCC(C)(C)C2` came in with a ring closure, isolated yield in data set [1] (from CCn1c(-c2cc(N3CCN4CCCC[C@@H]4C3)cnc2[C@H](C)OC)c(CC(C)(C)CO)c2cc(-c3cccc(C[C@H](NC(=O)OC(C)(C)C)C(=O)N4CCC[C@@H](C(=O)O)N4)c3)ccc21, ester bond, EDCI/HOBt/DIPEA, 11.3 mM, 16.0 h) of 62%.
Regarding `CCn1c(-c2cc(N3CCN4CCOC[C@@H]4C3)cnc2[C@H](C)OC)c2c3cc(ccc31)C1=CCCN(C1)C[C@H](NC(=O)OC(C)(C)C)C(=O)N1CCC[C@H](N1)C(=O)OCC(C)(C)C2`, the ring closure, isolated yield in data set [1] (from CCn1c(-c2cc(N3CCN4CCOC[C@@H]4C3)cnc2[C@H](C)OC)c(CC(C)(C)CO)c2cc(C3=CCCN(C[C@H](NC(=O)OC(C)(C)C)C(=O)N4CCC[C@@H](C(=O)O)N4)C3)ccc21, ester bond, EDC.HCl/HOBt/DIEA, 11.3 mM, 0.0 °C, 2.0 h) was found to be 67%.
Take `CO[C@@H](C)c1ncc(N2CCN3CCOC[C@@H]3C2)cc1-c1c2c3cc(ccc3n1CC(F)(F)F)-c1cccc(c1)C[C@H](NC(=O)OC(C)(C)C)C(=O)N1CCC[C@H](N1)C(=O)OCC(C)(C)C2`: in data set [1] (from CO[C@@H](C)c1ncc(N2CCN3CCOC[C@@H]3C2)cc1-c1c(CC(C)(C)CO)c2cc(-c3cccc(C[C@H](NC(=O)OC(C)(C)C)C(=O)N4CCC[C@@H](C(=O)O)N4)c3)ccc2n1CC(F)(F)F, ester bond, EDCI/HOBt/DIPEA, 5.3 mM, 16.0 h), the ring closure, isolated yield came out at 98%.
`CO[C@@H](C)c1ncccc1-c1c2c3cc(ccc3n1CC(F)(F)F)-c1coc(n1)C[C@H](NC(=O)OCc1ccccc1)C(=O)N1CCC[C@H](N1)C(=O)OCC(C)(C)C2` returned a ring closure, isolated yield in data set [1] (from CO[C@@H](C)c1ncccc1-c1c(CC(C)(C)COC(=O)[C@@H]2CCCNN2)c2cc(-c3coc(C[C@H](NC(=O)OCc4ccccc4)C(=O)O)n3)ccc2n1CC(F)(F)F, amide bond, EDCI/HOBt/DIEA, 6.3 mM, 16.0 h) of 21%.
On to `CO[C@@H](C)c1ncccc1-c1c2c3cc(ccc3n1CC(F)(F)F)C1CCN(C1)C[C@H](NC(=O)OC(C)(C)C)C(=O)N1CCC[C@H](N1)C(=O)OCC(C)(C)C2`, for which the ring closure, isolated yield in data set [1] (from CO[C@@H](C)c1ncccc1-c1c(CC(C)(C)CO)c2cc(C3CCN(C[C@H](NC(=O)OC(C)(C)C)C(=O)N4CCC[C@@H](C(=O)O)N4)C3)ccc2n1CC(F)(F)F, ester bond, EDCI/HOBt/DIEA, 7.1 mM, 16.0 h) was 21%.
One may read the IC50 as the midpoint of a concentration-inhibition curve. Regarding `C=CC(=O)N1CCOC2(CCN(C(=O)N(C)[C@H](C(=O)N[C@H]3Cc4cncc(n4)-c4ccc5c(c4)c(c(-c4cccnc4[C@H](C)OC)n5CC)CC(C)(C)COC(=O)[C@@H]4CCCN(N4)C3=O)C(C)C)CC2)C1` (atropisomer, axis not shown) [EA36], the half-inhibitory concentration (IC50) in the data set on NCI-H358 (K-Ras G12C) is above 1000 nM.
As to `C=CC(=O)N1COC2(CCN(C(=O)N(C)[C@H](C(=O)N[C@H]3CC4=NC=C(O4)c4ccc5c(c4)c(c(-c4cccnc4[C@H](C)OC)n5CC)CC(C)(C)COC(=O)[C@@H]4CCCN(N4)C3=O)C(C)C)CC2)C1` (atropisomer, axis not shown) [EA37], the IC50 with NCI-H358 (K-Ras G12C) was above 1000 nM.
Same read-out and setting: to `C=CC(=O)N1CCN(CC)C2(CCN(C(=O)N(C)[C@H](C(=O)N[C@H]3C[C@H]4CN(CCO4)c4ccc5c(c4)c(c(-c4cccnc4[C@H](C)OC)n5CC)CC(C)(C)COC(=O)[C@@H]4CCCN(N4)C3=O)C(C)C)CC2)C1` (atropisomer, axis not shown) [EA38] belongs above 1000 nM; to `C=CC(=O)N1CC2(CCN(C(=O)N(C)[C@H](C(=O)N[C@H]3C[C@H]4CN(CCO4)c4ccc5c(c4)c(c(-c4cccnc4[C@H](C)OC)n5CC)CC(C)(C)COC(=O)[C@@H]4CCCN(N4)C3=O)C(C)C)CC2)C1` (atropisomer, axis not shown) [EA121], above 1000 nM; to `C=CC(=O)N1CCOC2(CCN(C(=O)N(C)[C@H](C(=O)N[C@H]3Cc4cncc(c4)-c4ccc5c(c4)c(c(-c4cccnc4[C@H](C)OC)n5CC)CC(C)(C)COC(=O)[C@@H]4CCCN(N4)C3=O)C(C)C)CC2)C1` (atropisomer, axis not shown) [EA124], above 1000 nM.
Same read-out and setting: with `CCn1c(-c2cccnc2[C@H](C)OC)c2c3cc(ccc31)N1CCO[C@@H](C[C@H](NC(=O)[C@H](C(C)C)N(C)C(=O)N3CCC4(CC3)CN(C(=O)/C=C/CF)C4)C(=O)N3CCC[C@H](N3)C(=O)OCC(C)(C)C2)C1` (atropisomer, axis not shown) [EA128] the figure was above 1000 nM.
Same read-out and setting: to `C=CC(=O)N1CCOC2(CCN(C(=O)N(C)[C@H](C(=O)N[C@H]3C[C@@]4(C)CN(CCO4)c4ccc5c(c4)c(c(-c4cccnc4[C@H](C)OC)n5CC)CC(C)(C)COC(=O)[C@@H]4CCCN(N4)C3=O)C(C)C)CC2)C1` (atropisomer, axis not shown) [EA130] belongs above 890 nM; to `C=CC(=O)N1CCOC2(C1)CN(C(=O)N(C)[C@H](C(=O)N[C@H]1C[C@H]3CN(CCO3)c3ccc4c(c3)c(c(-c3cccnc3[C@H](C)OC)n4CC)CC(C)(C)COC(=O)[C@@H]3CCCN(N3)C1=O)C(C)C)C2` (atropisomer, axis not shown) [EA136], above 1000 nM; to `C=CC(=O)N1CCN(C)C2(CCN(C(=O)N(C)[C@H](C(=O)N[C@H]3C[C@H]4CN(CCO4)c4ccc5c(c4)c(c(-c4cccnc4[C@H](C)OC)n5CC)CC(C)(C)COC(=O)[C@@H]4CCCN(N4)C3=O)C(C)C)CC2)C1` (atropisomer, axis not shown) [EA189], above 1000 nM.
In the case of `C=CC(=O)N1CCOC2(CCN(C(=O)N(C)[C@H](C(=O)N[C@H]3Cc4nccc(n4)-c4ccc5c(c4)c(c(-c4cccnc4[C@H](C)OC)n5CC)CC(C)(C)COC(=O)[C@@H]4CCCN(N4)C3=O)C(C)C)CC2)C1` (atropisomer, axis not shown) [EA191], in the data set with NCI-H358 (K-Ras G12C), the IC50 is above 1000 nM.
For `CCn1c(-c2cccnc2[C@H](C)OC)c2c3cc(ccc31)C1=CCCN(C1)C[C@H](NC(=O)[C@H](C(C)C)N(C)C(=O)N1CCC3(CCN(C(=O)/C=C/CN(C)C)C3)CC1)C(=O)N1CCC[C@H](N1)C(=O)OCC(C)(C)C2` (atropisomer, axis not shown) [EA192], in the data set on NCI-H358 (K-Ras G12C), the IC50 was above 1000 nM.
The molecule “prop-2-en-1-yl N-[(7S,13S,19M)-21-ethyl-20-[2-[(1 S)-1-methoxyethyl]pyridin-3-yl]-17,17-dimethyl-8,14-dioxo-4,15-dioxa-3,9,21,27,28-pentaazapentacyclo[17.5.2.1^[2,5]0.1^[9,13]0.0^[22,26]]octacosa-1(25),2,5(28),19,22(26),23-hexaen-7-yl]carbamate” returned a ring closure, isolated yield in data set [1] (amide bond, HATU/DIEA, 139.0 mM) of 33%.
In the case of “tert-butyl ((6^3S,4S)-1^2-(2-((S)-1-methoxyethyl)pyridin-3-yl)-10,10-dimethyl-5,7-dioxo-1^1-(2,2,2-trifluoroethyl)-6^1,6^2,6^3,6^4,6^5,6^6-hexahydro-1^1H-8-oxa-1(5,3)-indola-6(1,3)-pyridazina-2(3,1)-azetidinacycloundecaphane-4-yl)carbamate”, the ring closure, isolated yield in data set [1] (ester bond, EDCI/HOBt/DIEA, 6.4 mM, 30.0 °C) came to 37%.
With “tert-butyl ((6^3S,4S,Z)-11-ethyl-1^2-(2-((S)-1-methoxyethyl)pyridin-3-yl)-10,10-dimethyl-5,7-dioxo-6^1,6^2,6^3,6^4,6^5,6^6-hexahydro-1^1H-8-oxa-2(5,3)-oxadiazola-1(5,3)-indola-6(1,3)-pyridazinacycloundecaphane-4-yl)carbamate”, the ring closure, isolated yield in data set [1] (ester bond, EDCI/HOBt/DIEA, 6.8 mM) came out at 18%.
As to “tert-butyl ((6^3S, 4S)-1^2-(2-((S)-1-methoxyethyl) pyridin-3-yl)-10,10-dimethyl-5,7-dioxo-1^1-(2,2,2-trifluoroethyl)-6^1,6^2,6^3,6^4,6^5,6^6-hexahydro-1^1H-8-oxa-1(5,3)-indola-6(1,3)-pyridazina-2(3,1)-piperidinacycloundecaphane-4-yl)carbamate”, the ring closure, isolated yield in data set [1] (ester bond, EDCI/HOBt/DIEA, 6.1 mM) was 8% and 9%.
